Experimental data from US10660900B2 (priority 2014, dated 2020).
“Also recorded” adds a separate entry of the source.

How the values were obtained:
[1] = Safety and tolerability in healthy volunteers (adverse events, ECG, vital signs, oximetry); assay type: in vivo, human
Experimental: Pulse oximetry and capnography data were collected continuously using a GE Carescape B650 monitoring system from 2 hours prior to dosing and until six hours after dosing, and thereafter at 12, 24, 48 and 72 hours post-dosing. Additional oximetry data were collected at 120, 168 and 216 hours. Pupillary miosis was assessed by pupillometry. Dark-adapted pupil diameter was measured in triplicate using a Neuroptics PLR-200 pupillometer under standardized light intensity (<5 lux) pre-dose, and at 2, 4, 6, 12, 24, 48, 72, 96, 120, 168 and 216 hours post-dosing.
Safety and tolerability of noribogaine were tested in the group of volunteers from Example 1. Cold pressor testing was conducted in 1° C. water according to the method of Mitchell et al. (J Pain 5:233-237, 2004) pre-dose, 6, 24, 48, 72 and 216 hours post-dosing. Safety evaluations included clinical monitoring, recording of adverse events (AEs), safety laboratory tests, vital signs, ECG telemetry from −2 h to 6 h after dosing, and 12-lead electrocardiograms (ECGs) up to 216 hours post-dosing.

[2] = QT interval in opioid-dependent patients; assay type: in vivo, human; conditions: 60, 120, 180 mg; first 24 hours; correlated with serum concentration
Experimental: Patients' QT intervals were evaluated at regular time points throughout the study. […] A goodness-of-fit plot for the observed and predicted relation between noribogaine plasma levels and ΔΔQTc1 is provided in FIG. 9C.

human OPRK = assay: biochemical; assay type: binding
calf OPRK = calf OPRK (Bos taurus, UniProt Q2KIP6); conditions: cited from earlier work
Sequence of calf OPRK (Q2KIP6 whole entry): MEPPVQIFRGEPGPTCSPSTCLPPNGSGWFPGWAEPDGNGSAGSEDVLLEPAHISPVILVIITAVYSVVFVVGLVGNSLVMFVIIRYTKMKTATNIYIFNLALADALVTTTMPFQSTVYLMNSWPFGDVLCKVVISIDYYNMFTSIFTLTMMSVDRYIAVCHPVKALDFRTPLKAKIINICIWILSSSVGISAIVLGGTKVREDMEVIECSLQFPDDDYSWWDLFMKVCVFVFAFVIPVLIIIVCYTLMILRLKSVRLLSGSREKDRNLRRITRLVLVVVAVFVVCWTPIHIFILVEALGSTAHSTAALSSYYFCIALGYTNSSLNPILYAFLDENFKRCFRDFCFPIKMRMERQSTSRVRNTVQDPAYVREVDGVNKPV

human OPRM [3] = target: T1, human OPRM (Homo sapiens, UniProt P35372); assay type: cell-based; design: host or cells: CHO-K1
T1 sequence (P35372 whole entry): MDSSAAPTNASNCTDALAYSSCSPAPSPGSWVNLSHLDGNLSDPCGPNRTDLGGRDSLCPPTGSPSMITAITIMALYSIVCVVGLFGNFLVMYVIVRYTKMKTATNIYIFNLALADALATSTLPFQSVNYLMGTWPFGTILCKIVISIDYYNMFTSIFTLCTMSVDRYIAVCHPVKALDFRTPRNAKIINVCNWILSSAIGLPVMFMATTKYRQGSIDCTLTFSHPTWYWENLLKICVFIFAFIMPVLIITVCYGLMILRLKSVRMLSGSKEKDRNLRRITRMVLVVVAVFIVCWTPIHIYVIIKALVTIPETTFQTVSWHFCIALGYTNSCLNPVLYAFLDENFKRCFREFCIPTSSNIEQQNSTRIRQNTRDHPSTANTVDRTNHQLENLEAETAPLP

OPRK [4] = target: T2, OPRK (Homo sapiens, UniProt P41145); assay: cell-based; design: host or cells: CHO-K1
T2 sequence (P41145 whole entry): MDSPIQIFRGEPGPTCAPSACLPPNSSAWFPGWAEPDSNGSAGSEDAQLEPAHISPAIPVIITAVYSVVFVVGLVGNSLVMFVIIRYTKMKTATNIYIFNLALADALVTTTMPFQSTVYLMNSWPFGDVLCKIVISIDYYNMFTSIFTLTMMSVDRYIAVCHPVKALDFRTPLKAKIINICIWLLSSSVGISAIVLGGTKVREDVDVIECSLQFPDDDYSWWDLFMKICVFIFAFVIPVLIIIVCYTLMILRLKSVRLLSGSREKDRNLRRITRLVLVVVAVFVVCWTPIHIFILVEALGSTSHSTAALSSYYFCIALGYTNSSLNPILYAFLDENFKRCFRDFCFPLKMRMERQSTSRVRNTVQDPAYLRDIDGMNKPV

OPRK [5] = target: T2, OPRK; assay: biochemical; assay type: binding; design: expressed in transfected cells; host or cells: CHO-K1; conditions: [3H]-U69,593 Binding; This work
OPRK [6] = target: T2, OPRK; assay: Bias quantification G-protein/Beta-arrestin2; design: expressed in transfected cells; host or cells: CHO-K1
Experimental: Coupling efficiency (e-coupling) values indicated the relationship between the apparent binding affinity Ki versus the apparent functional potency EC50 of a given agonist ligand and used the equation pKi-pEC50. […] For inhibitory ligands, e-signal was calculated using maximal level of inhibition (Imax) normalized from 0 (basal, buffer) to 1 (agonist without inhibitor). Bias-coupling (quantification of pathway bias) was evaluated by subtracting the EC50 or the Ke issued from the G-protein pathway assays by those issued from β-arrestin pathway assays for a given ligand and in a linear (nM) scale. Bias-efficacy in favor of the G-protein pathway was evaluated by dividing the functional activation and the functional inhibition maximum responses (e-signal) from the G-protein pathway by the beta-arrestin pathway assays for a given ligand.

[7] = Single ascending oral dose pharmacokinetics of noribogaine in healthy volunteers (plasma and urine, LCMSMS); conditions: for CL/F: mean (SD), n = 6
human OPRM [8] = target: T1, human OPRM; assay: biochemical; assay type: binding; design: expressed in transfected cells; host or cells: CHO-K1 (cell line provided by Dr. Toll, Torrey Pines Institute); membranes prepared in house

## CC[C@H]1CC2C[C@H]3c4[nH]c5ccc(O)cc5c4CCN(C2)C13 [Noribogaine, noribogaine]
[1]; 3 mg dose group, two subjects
  number of adverse events reported: five
[1]; 3 mg noribogaine
  adverse events, Mild: Back pain; also recorded: Dizziness; also recorded: Epistaxis; also recorded: Headache
  adverse events, Moderate: Headache
[1]; 10 mg dose group, single subject
  number of adverse events reported: one
[1]; 10 mg noribogaine
  adverse events, Mild: Headache
[1]; 30 mg dose group, single subject
  number of adverse events reported: one
[1]; 30 mg noribogaine
  adverse events, Mild: Headache
[1]; 3-60 mg single oral doses
  oximetry, capnography, respiratory rate: no changes in oximetry or capnography, or changes in respiratory rate
  vital signs and safety laboratory tests: no changes in vital signs or safety laboratory tests of note
[1]; all dose groups, any time
  QTcF values above 500 msec: no QTcF values >500 msec
[1]; one subject, 10 mg noribogaine, 24 hours post-dosing
  single increase in QTcF: > 60 ms
[2]
  QT interval prolongation (ΔQTcI): dose-dependent increase in QT interval prolongation
Human OPRK; from literature (or literature/this work) values
  ΔpKi = pKi(OPRK) − pKi(OPRM), OPRK Specificity: 0.4
Human OPRK; from values of this work
  ΔpKi = pKi(OPRK) − pKi(OPRM), OPRK Specificity: 0.3
Calf OPRK; calf OPRK
  Ki: 960 nM
Calf OPRK; calf receptor, literature
  pKi: 6.0
Human OPRM [3]
  Efficacy: 3%
  Efficacy (inhibition): −100~ %
  agonism of β-Arrestin-2 recruitment at OPRM: not an agonist at OPRM
  e-coupling (pKi-pKe): ~1.10
  inhibition of agonist response: 60-100%
  pEC50: 5.9
OPRK [4]
  EC50: 265 nM
OPRK [4]; Activation
  e-coupling (pKi-pEC50): −0.43
  e-coupling, Beta-Arrestin2 Pathway: −0.43
  e-signal, Beta-Arrestin2 Pathway: 0.13
  pEC50: 6.6
OPRK [4]; CHO-K1, read-out: Efficacy (Emax)
  Emax: 12.6 ± 3%
OPRK [4]; Dynorphin A at EC80
  inhibition of agonist response: ~60%
OPRK [4]; Inhibition
  e-coupling, Beta-Arrestin2 Pathway: −0.44
  e-signal, Beta-Arrestin2 Pathway: 0.60
OPRK [4]; inhibitory component
  e-coupling (pKi-pKe): −0.44
OPRK [4]; inhibitory component against Dynorphin A
  Efficacy (inhibition): −60~ %
OPRK [5]
  pKi: 6.1
OPRK [6]
  efficacy bias relative to 6′GNTI: 2.4 ×
OPRK [6]; Activation
  Bias-coupling, Bias G-protein/Beta-arrestin2: 32
  Bias-efficacy, Bias G-protein/Beta-arrestin2: 0.59
OPRK [6]; Inhibition
  Bias-coupling, Bias G-protein/Beta-arrestin2: 144
  Bias-efficacy, Bias G-protein/Beta-arrestin2: −0.35
[7]; 3 mg single oral noribogaine
  CL/F: 41.4 (7.0) L/h
[7]; 10 mg single oral noribogaine
  CL/F: 42.3 (12.0) L/h
[7]; 30 mg single oral noribogaine
  CL/F: 46.9 (16.4) L/h
[7]; 60 mg single oral noribogaine
  CL/F: 34.0 (11.4) L/h
[7]; 3-60 mg single oral doses
  dose relation of Cmax and AUC: increased linearly with dose
[7]; across dose groups
  Volume of distribution: 1417 to 3086 L
[7]; plasma, across dose groups
  time of peak concentrations after oral noribogaine dosing: 2 to 3 h
Human OPRM [8]
  pKi: 5.8
